# Laboratory results taken from patent publication US20240368145A1, “METHODS FOR TREATING CANCER” (IMMUNIC AG, priority 2021, published 2024).
# Assays:
# [1] = system: IL-17A; assay: Cytokine assay, human PBMC stimulated with PHA: IL-17A; format: cell-based; conditions: PHA-activated, 48 hours, read-out: IL-17A inhibition (IC50 range)
# Protocol: Peripheral blood mononuclear cells (PBMC) from healthy human donors were purified using Accuspin™ System-Histopaque-1077 (Sigma) according to the protocol recommended by the manufacturer. Purified PBMC were then washed twice with phosphate-buffered saline (PBS) and resuspended in RPMI1640 culture medium supplemented with 10% dialyzed heat inactivated fetal calf serum, 1.5 mM L-glutamine, 100 U penicillin/mL and […] streptomycin/mL (all from PAN Biotech, Aidenbach, Germany). For stimulation, PBMC were seeded at 1×10^5 cells/well, activated with 2 gg/mL phytohaemagglutinin (PHA, Sigma) and incubated with the test compounds for 48 hours. IL-17A, IL-17F and INFγ were then determined in the culture supernatant using a Luminex BioPlex system, following the manufacturer's instructions (BioRad, Munich, Germany). To determine the IC50, compounds were titrated semilogarithmically.
# Cytokines were determined in the aforementioned culture supernatant using the following methods: IL-17A was measured using the human homodimer IL-17A ELISA Ready Set Go Kit from cBioscience (Frankfurt, Germany); IL-17F using the human IL-17F ELI-Pair from Holzel Diagnostica GmbH (K51n, Germany); and IFNγ using the OptEIA human IFN-g ELISA from BD Bioscience (Heidelberg, Germany), all following the manufacturer's instructions.
# [2] = system: prostate cancer cell line PC3; assay: Oncolead sulforhodamin B growth inhibition, PC3; format: cell-based; conditions: sulforhodamin B assay; 72 and 120 h treatment; read-out: GI50 range PC3
# Protocol: (§1) Cell growth was assessed by measuring protein content using sulforhodamin B. Growth inhibition was calculated by (TCMD−T0)/TNCT72h−T0)*100% with TCMD is the tumor growth at 72 h with the respective compound concentration. To is the protein content of the cell line before treatment and TNCT72h is the tumor growth of the DMSO control.
# [3] = system: prostate cancer cell line DU145; assay: Oncolead sulforhodamin B growth inhibition, DU145; format: cell-based; conditions: Homo sapiens, DU-145; sulforhodamin B assay; 72 and 120 h treatment; read-out: GI50 range DU145
# Protocol: as §1
# [4] = system: prostate cancer cell line LNCAP; assay: Oncolead sulforhodamin B growth inhibition, LNCAP; format: cell-based; conditions: Homo sapiens, sulforhodamin B assay, 72 and 120 h treatment, read-out: GI50 range LNCAP
# Protocol: as §1
# [5] = system: prostate cancer cell line 22RV1, DU145, LNCAP, PC3 and VCaP; assay: Oncolead profiling in a panel of 5 prostate cancer cell lines (summary); format: cell-based; conditions: for inhibition at 30 µM: highest concentration (30 μM), VCaP cell line not included, read-out: average growth inhibition; for growth inhibition: in 4 of 5 prostate cancer cell lines
# Protocol: as §1
# [6] = Viability and differentiation in different solid cancer cell lines; format: cell-based; conditions: range over HEK293, A2780, MT3, MCF7, NCIH460, A-375, HCT15, HT1080
# [7] = system: more than 75 representative cancer cell lines; assay: Oncolead profiling in a panel of more than 75 cancer cell lines; format: cell-based; conditions: FIG. 1 and FIG. 2
# Protocol: The compound of Example 1 and Example 1/1 was tested in vitro in more than 75 representative cancer cell lines at Oncolead (www.oncolead.com) according their standard procedure. The obtained data is summarised in FIG. 1 (Example 1) and FIG. 2 (Example 1/1).
# [8] = system: AML cell line HL-60; assay: CellTiter-Blue proliferation assay, HL-60; format: cell-based; conditions: Homo sapiens, geometric mean relative IC50, 72 hours, read-out: IC50 range for cell line HL-60
# Protocol: (§2) Aim of this study was to evaluate compounds of Example 1, 1/1, 2/2, 2/5 and 2/6 in a proliferation assays. The 5 test compounds were tested in a CellTiter-Blue® based proliferation assay in three AML cell lines (HL-60, THP-1 and MOLM-13). The compounds were tested at 10 concentrations in half-log increments (highest concentration 30 μM or 100 μM) in duplicates. The incubation period with the applied compounds was fixed to 72 hours.
# [9] = system: AML cell line MOLM-13; assay: CellTiter-Blue proliferation assay, MOLM-13; format: cell-based; conditions: Homo sapiens, geometric mean relative IC50, 72 hours, read-out: IC50 range for cell line MOLM-13
# Protocol: as §2
# [10] = system: AML cell line THP-1; assay: CellTiter-Blue proliferation assay, THP-1; format: cell-based; conditions: Homo sapiens, geometric mean relative IC50, 72 hours, read-out: IC50 range for cell line THP-1
# Protocol: as §2
# [11] = system: full length AR (AR-FL) mRNA; assay: Androgen receptor RNA level expression (qRT-PCR) in 22Rv1: AR-FL; format: cell-based; conditions: 22Rv1, 1 μM, 48 h; for mrna remaining at 1 µM: Homo sapiens, normalized to untreated control (vehicle/DMSO)
# Protocol: The prostate cancer cell line 22Rv1 was treated for 48 h with 1 μM Example compound 1, 1/1, 1/2, 2/1, 2/2, 2/3, 2/4, 2/5, 2/6, 2/7, 2/8, 2/9 and 2/10 and the reference compounds SR2211 and XY018 (Nat. Med. 2016; 22:488). RNA was extracted using the RNA isolation kit XS (Macherey-Nagel) and following the manufacture's manual. RNA quantity was measured with the Nanodrop before reverse transcription using Superscript II (Invitrogen #100004925). For the quantitative real-time PCR with SYBR-Green (Qiagen #204074), the following primers were used: AR forward-ACATCAAGGAACTCGATCGTATCATTGC and reverse-TTGGGCACTTGCACAGAGAT, AR-V7: forward-CCATCTTGTCGTCTTCGGAAATGTTATGAAGC and reverse-TTTGAATGAGGCAAGTCAGCCTTTCTT. The qRT-PCR proceeded as follows: denaturation for 5 min 95° C.; 40 cycles of “20 sec at 95° C. and 15 sec at 60° C.” and at the end of the last cycle, the melting temperature of the products was determined by gradually increasing it from 60° C. to 99° C. CT values from all samples were normalized to two different reference (housekeeping) genes using the mean CT value of the GAPDH and YWHAZ (reference genes). Next the values are normalized to the untreated control (vehicle/DMSO).
# [12] = system: AR-FL protein; assay: Androgen receptor protein expression (western blot) in 22Rv1: AR-FL; format: cell-based, human; conditions: 22Rv1, 6 μM, 48 h; for AR-FL protein level: western blot quantification
# Protocol: (§3) After 48 h, cell were lysed using cell extraction buffer (Life Technologies #FNN0011) for western blot. […] The membrane is then incubation for 1 hour in blocking buffer (5% milk in 20 mM Tris, 150 mM NaCl, pH 7.5, 0.05% Tween 20 [TBS-T]). After this incubation, the primary antibody is added and incubated overnight at 4° C. After washing, the membrane was incubated with the secondary antibody for 1 h. Visualization of the bands was performed using the femto maximum sensitivity substrate reagent and the luminescence signal recorded with the Fusion FX7 (Vilber). For protein quantification, InageJ was used.
# [13] = system: AR-V7 protein; assay: Androgen receptor protein expression (western blot) in 22Rv1: AR-V7; format: cell-based, human; conditions: 22Rv1, 6 μM, 48 h; for AR-V7 protein level: western blot quantification
# Protocol: as §3
compound,measurement,setting,value
Fc1cccc(Cl)c1-c1noc(-c2cnn(-c3cccc(Cl)c3)c2C(F)(F)F)c1-c1nccs1 [Example 1/1],IC50,[1],< 25 nM
same,GI50,[2],< 25 nM
same,GI50,[3],< 25 nM
same,GI50,[4],< 25 nM
same,inhibition at 30 µM,[5],80%
same,growth inhibition,[5],strong growth inhibition
same,IC50,[6],1 to 25 nM
same,"in vitro anticancer activity (Z-score panel, words)",[7],exhibits an in vitro anticancer activity towards a broad spectrum of therapeutic cancer indication
same,IC50,[8],< 10 nM
same,IC50,[9],< 10 nM
same,IC50,[10],< 10 nM
same,full length AR (AR-FL) mRNA expression,[11],strong reduction
same,mrna remaining at 1 µM,[11],43.6%
same,AR-FL protein levels,[12],strong reduction
same,AR-FL protein level,[12],0.482
same,AR-V7 protein levels,[13],strong reduction
same,AR-V7 protein level,[13],0.323
CC(C)(O)CCn1ncc(-c2onc(-c3c(F)cccc3Cl)c2-c2ncccn2)c1C(F)(F)F [2/8],IC50,[1],< 25 nM
same,GI50,[2],< 25 nM
same,GI50,[3],< 25 nM
same,GI50,[4],100 to 5000 nM
same,inhibition at 30 µM,[5],80%
same,growth inhibition,[5],strong growth inhibition
same,full length AR (AR-FL) mRNA expression,[11],strong reduction
same,mrna remaining at 1 µM,[11],44.9%
same,AR-FL protein levels,[12],strong reduction
same,AR-FL protein level,[12],0.421
same,AR-V7 protein levels,[13],strong reduction
same,AR-V7 protein level,[13],0.309
"COC(=O)c1c(-c2c(F)cccc2Cl)noc1-c1cnn(-c2cccc(Cl)c2)c1C(F)(F)F [Example 1, Methyl 3-(2-chloro-6-fluorophenyl)-5-(1-(3-chlorophenyl)-5-(trifluoromethyl)-1H-pyrazol-4-yl)isoxazole-4-carboxylate]",IC50,[1],< 25 nM
same,GI50,[2],< 25 nM
same,GI50,[3],< 25 nM
same,GI50,[4],25 to 100 nM
same,inhibition at 30 µM,[5],80%
same,growth inhibition,[5],strong growth inhibition
same,IC50,[6],1 to 25 nM
same,"in vitro anticancer activity (Z-score panel, words)",[7],exhibits an in vitro anticancer activity towards a broad spectrum of therapeutic cancer indication
same,IC50,[8],< 10 nM
same,IC50,[9],< 10 nM
same,IC50,[10],10 to 100 nM
same,full length AR (AR-FL) mRNA expression,[11],strong reduction
same,mrna remaining at 1 µM,[11],44.2%
same,AR-FL protein levels,[12],strong reduction
same,AR-FL protein level,[12],0.474
same,AR-V7 protein levels,[13],strong reduction
same,AR-V7 protein level,[13],0.368
